Measured values as given in US20240254118A1, “PRMT5 INHIBITORS AND USES THEREOF” (Gilead Sciences, Inc., priority 2022, published 2024).

Experiments:
[1] = tested on: SDMA signal (PRMT5 inhibition) in HCT116 MTAP-deleted cells; assay: Symmetric di-methyl arginine image-based high content screen assay (SDMA assay), HCT116 MTAP-deleted; format: cell-based; settings: SDMA assay; for EC50: Homo sapiens, HCT-116, 72 h, 3 days of treatment, cell line not given, taken as HCT116 MTAP-deleted, read-out: EC50 (SDMA assay); for EC50 selectivity (SDMA assay): taken as HCT116 WT versus MTAP-deleted
Summary of the method: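 Read-out: per-cell mean SDMA immunofluorescence (Alexa Fluor 488 secondary), cells segmented by DAPI on a high-content imager. Compound exposure in HCT116 MTAP-deleted cells lasted until fixation on Day 3; overnight 4° C primary anti-SDMA antibody staining.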

[2] = tested on: HCT116 MTAP-deleted cells; assay: Cell viability assay (CellTiter-Glo, 7 days), HCT116 MTAP-deleted; settings: Homo sapiens, HCT-116, 168 h

Row | EC50 [1] | EC50 selectivity (SDMA assay) [1] | Structure (SMILES) | CC50 [2]
1 | 1 to 5 nM | 182 | CN(C(=O)C1CC1)N(Cc1nc2cc(Cl)ccc2o1)C(=O)c1ccc2nc(N)c3cnn(C)c3c2c1 [Example 259, 4-amino-N-((5-chlorobenzo[d]oxazol-2-yl)methyl)-N′-(cyclopropanecarbonyl)-N′,1-dimethyl-1H-pyrazolo[4,3-c]quinoline-8-carbohydrazide] | < 100 nM
2 | 1 to 5 nM | 211 | Cn1ncc2c(N)nc3ccc(C(=O)N(Cc4ccc(C(F)(F)F)cn4)N4C(=O)O[C@@H]5CC[C@@H]54)cc3c21 [Example 260, 4-amino-1-methyl-N-((1R,5S)-3-oxo-2-oxa-4-azabicyclo[3.2.0]heptan-4-yl)-N-((5-(trifluoromethyl)pyridin-2-yl)methyl)-1H-pyrazolo[4,3-c]quinoline-8-carboxamide] | < 100 nM
3 | 1 to 5 nM | 257 | CC(=O)N(C)N(Cc1ncc(C(F)(F)F)cc1Cl)C(=O)c1ccc2nc(N)c3cnn(C)c3c2c1 [Example 261, N′-acetyl-4-amino-N-((3-chloro-5-(trifluoromethyl)pyridin-2-yl)methyl)-N′,1-dimethyl-1H-pyrazolo[4,3-c]quinoline-8-carbohydrazide] | < 100 nM
4 | 1 to 5 nM | 169 | CN(C(=O)[C@H]1C[C@H]1F)N(Cc1ncc(C(F)(F)F)cc1F)C(=O)c1ccc2nc(N)c3cnn(C)c3c2c1 [Example 262, 4-amino-N-((3-fluoro-5-(trifluoromethyl)pyridin-2-yl)methyl)-N′-((1R,2R)-2-fluorocyclopropane-1-carbonyl)-N′,1-dimethyl-1H-pyrazolo[4,3-c]quinoline-8-carbohydrazide] | < 100 nM
5 | < 1 nM | 46 | [2H]C([2H])(c1ccc(C(F)(F)F)cc1F)N(C(=O)c1ccc2nc(N)c3cnn(C)c3c2c1)N(C)C(=O)C1CC1 [Example 263, 4-amino-N′-(cyclopropanecarbonyl)-N-((2-fluoro-4-(trifluoromethyl)phenyl)methyl-d2)-N′,1-dimethyl-1H-pyrazolo[4,3-c]quinoline-8-carbohydrazide] | < 100 nM
6 | < 1 nM | 281 | [2H]C([2H])(c1ccc(C(F)(F)F)cc1F)N(C(=O)c1ccc2nc(N)c3cnn(C)c3c2c1)N(C)C(C)=O [Example 264, N′-acetyl-4-amino-N-((2-fluoro-4-(trifluoromethyl)phenyl)methyl-d2)-N′,1-dimethyl-1H-pyrazolo[4,3-c]quinoline-8-carbohydrazide] | < 100 nM
7 | < 1 nM | 209 | CCC(=O)N(C)N(Cc1ncc(C(F)(F)F)cc1F)C(=O)c1ccc2nc(N)c3cnn(C)c3c2c1 [Example 265, 4-amino-N-((3-fluoro-5-(trifluoromethyl)pyridin-2-yl)methyl)-N′,1-dimethyl-N′-propionyl-1H-pyrazolo[4,3-c]quinoline-8-carbohydrazide] | < 100 nM
8 | < 1 nM | 63 | [2H]C([2H])([2H])N(C(C)=O)N(Cc1ccc(C(F)(F)F)cc1F)C(=O)c1ccc2nc(N)c3cnn(C([2H])([2H])[2H])c3c2c1 [Example 266, N′-acetyl-4-amino-N-(2-fluoro-4-(trifluoromethyl)benzyl)-N′,1-bis(methyl-d3)-1H-pyrazolo[4,3-c]quinoline-8-carbohydrazide] | < 100 nM
9 | 1 to 5 nM | 223 | Cc1cc(CN(C(=O)c2ccc3nc(N)c4cnn(C)c4c3c2)N(C)C(=O)C2CC2)ncc1Cl [Example 267, 4-amino-N-((5-chloro-4-methylpyridin-2-yl)methyl)-N′-(cyclopropanecarbonyl)-N′,1-dimethyl-1H-pyrazolo[4,3-c]quinoline-8-carbohydrazide] | < 100 nM
10 | < 1 nM | 129 | [2H]C([2H])([2H])n1ncc2c(N)nc3ccc(C(=O)N(Cc4ccc(C(F)(F)F)cc4F)N(C)C(C)=O)cc3c21 [Example 270, N′-acetyl-4-amino-N-(2-fluoro-4-(trifluoromethyl)benzyl)-N′-methyl-1-(methyl-d3)-1H-pyrazolo[4,3-c]quinoline-8-carbohydrazide] | < 100 nM
11 | < 1 nM | 86 | CC(=O)N(C)N(Cc1ncc(C(F)(F)F)cc1F)C(=O)c1ccc2nc(N)c3cnn(C)c3c2c1 [Example 271, N′-acetyl-4-amino-N-((3-fluoro-5-(trifluoromethyl)pyridin-2-yl)methyl)-N′,1-dimethyl-1H-pyrazolo[4,3-c]quinoline-8-carbohydrazide] | < 100 nM
12 | < 1 nM | 466 | CN(C(=O)C1CC1)N(Cc1cc(F)c(F)cc1F)C(=O)c1ccc2nc(N)c3cnn(C)c3c2c1 [Example 272, 4-amino-N′-(cyclopropanecarbonyl)-N′,1-dimethyl-N-(2,4,5-trifluorobenzyl)-1H-pyrazolo[4,3-c]quinoline-8-carbohydrazide] | < 100 nM
13 | < 1 nM | 243 | CN(C(=O)C1CC1)N(Cc1ncc(C(F)(F)F)cc1F)C(=O)c1ccc2nc(N)c3cnn(C)c3c2c1 [Example 274, 4-amino-N′-(cyclopropanecarbonyl)-N-((3-fluoro-5-(trifluoromethyl)pyridin-2-yl)methyl)-N′,1-dimethyl-1H-pyrazolo[4,3-c]quinoline-8-carbohydrazide] | < 100 nM
14 | < 1 nM | 129 | Cc1nc2ccc(CN(C(=O)c3ccc4nc(N)c5cnn(C)c5c4c3)N(C)C(=O)C3CC3)cc2s1 [Example 275, 4-amino-N′-(cyclopropanecarbonyl)-N′,1-dimethyl-N-((2-methylbenzo[d]thiazol-6-yl)methyl)-1H-pyrazolo[4,3-c]quinoline-8-carbohydrazide] | < 100 nM
15 | 1 to 5 nM | 166 | CN(C(=O)[C@@H]1C[C@@H]1F)N(Cc1ccc(C(F)(F)F)cn1)C(=O)c1ccc2nc(N)c3cnn(C)c3c2c1 [Example 276, 4-amino-N′-((1S,2S)-2-fluorocyclopropane-1-carbonyl)-N′,1-dimethyl-N-((5-(trifluoromethyl)pyridin-2-yl)methyl)-1H-pyrazolo[4,3-c]quinoline-8-carbohydrazide] | < 100 nM
16 | 1 to 5 nM | 229 | Cn1ncc2c(N)nc3ccc(C(=O)N(Cc4ccc(C(F)(F)F)cn4)NC(=O)OC(C)(C)C)cc3c21 [Example 277, tert-butyl 2-(4-amino-1-methyl-1H-pyrazolo[4,3-c]quinoline-8-carbonyl)-2-((5-(trifluoromethyl)pyridin-2-yl)methyl)hydrazine-1-carboxylate] | < 100 nM
17 | < 1 nM | 121 | [2H]C([2H])([2H])N(C(=O)C1CC1)N(Cc1ncc(C(F)(F)F)cc1F)C(=O)c1ccc2nc(N)c3cnn(C([2H])([2H])[2H])c3c2c1 [Example 278, 4-amino-N′-(cyclopropanecarbonyl)-N-((3-fluoro-5-(trifluoromethyl)pyridin-2-yl)methyl)-N′,1-bis(methyl-d3)-1H-pyrazolo[4,3-c]quinoline-8-carbohydrazide] | < 100 nM
18 | 1 to 5 nM | 494 | CN(C(=O)C1CC1)N(Cc1cnc(C(F)(F)F)c(F)c1)C(=O)c1ccc2nc(N)c3cnn(C)c3c2c1 [Example 279, 4-amino-N′-(cyclopropanecarbonyl)-N-((5-fluoro-6-(trifluoromethyl)pyridin-3-yl)methyl)-N′,1-dimethyl-1H-pyrazolo[4,3-c]quinoline-8-carbohydrazide] | 100 to 1000 nM
19 | 1 to 5 nM | 31 | CCC(=O)N(CC)N(Cc1ccc(C(F)(F)F)cn1)C(=O)c1cc2c(cc1F)nc(N)c1cnn(C)c12 [Example 280, 4-amino-N′-ethyl-7-fluoro-1-methyl-N′-propionyl-N-((5-(trifluoromethyl)pyridin-2-yl)methyl)-1H-pyrazolo[4,3-c]quinoline-8-carbohydrazide] | < 100 nM
20 | 1 to 5 nM | 70 | CN(C(=O)C1CC1)N(Cc1ccc(C(F)(F)F)cn1)C(=O)c1ccc2nc(N)c3cn[nH]c3c2c1 [Example 281, 4-amino-N′-(cyclopropanecarbonyl)-N′-methyl-N-((5-(trifluoromethyl)pyridin-2-yl)methyl)-1H-pyrazolo[4,3-c]quinoline-8-carbohydrazide] | < 100 nM
21 | < 1 nM | 80 | CN(C(=O)C1CC1)N(Cc1ccc2c(c1)OC(F)(F)O2)C(=O)c1ccc2nc(N)c3cnn(C)c3c2c1 [Example 283, 4-amino-N′-(cyclopropanecarbonyl)-N-((2,2-difluorobenzo[d][1,3]dioxol-5-yl)methyl)-N′,1-dimethyl-1H-pyrazolo[4,3-c]quinoline-8-carbohydrazide] | < 100 nM
22 | < 1 nM | 16 | CCN(C(=O)C1CC1)N(Cc1ccc(C(F)(F)F)cn1)C(=O)c1cc2c(cc1F)nc(N)c1cnn(C)c12 [Example 286, 4-amino-N′-(cyclopropanecarbonyl)-N′-ethyl-7-fluoro-1-methyl-N-((5-(trifluoromethyl)pyridin-2-yl)methyl)-1H-pyrazolo[4,3-c]quinoline-8-carbohydrazide] | < 100 nM
23 | 1 to 5 nM | 174 | CCC(=O)N(CC)N(Cc1ccc(C(F)(F)F)cn1)C(=O)c1ccc2nc(N)c3cnn(C)c3c2c1 [Example 287, 4-amino-N′-ethyl-1-methyl-N′-propionyl-N-((5-(trifluoromethyl)pyridin-2-yl)methyl)-1H-pyrazolo[4,3-c]quinoline-8-carbohydrazide] | < 100 nM
